In patent US11078221B2, “Phosphorodiamidates and other phosphorus derivatives of fingolimod and related S1P receptor modulators” (UNIVERSITY COLLEGE CARDIFF CONSULTANTS LTD, priority 2017, dated 2021):

Legend:
Carboxypeptidase Y = target: T1, Carboxypeptidase Y (Saccharomyces cerevisiae, UniProt P00729); assay: Carboxypeptidase Y experiment (31P NMR); assay type: in vitro ADME
T1 construct: purchased Aldrich
T1 sequence (P00729 112-532): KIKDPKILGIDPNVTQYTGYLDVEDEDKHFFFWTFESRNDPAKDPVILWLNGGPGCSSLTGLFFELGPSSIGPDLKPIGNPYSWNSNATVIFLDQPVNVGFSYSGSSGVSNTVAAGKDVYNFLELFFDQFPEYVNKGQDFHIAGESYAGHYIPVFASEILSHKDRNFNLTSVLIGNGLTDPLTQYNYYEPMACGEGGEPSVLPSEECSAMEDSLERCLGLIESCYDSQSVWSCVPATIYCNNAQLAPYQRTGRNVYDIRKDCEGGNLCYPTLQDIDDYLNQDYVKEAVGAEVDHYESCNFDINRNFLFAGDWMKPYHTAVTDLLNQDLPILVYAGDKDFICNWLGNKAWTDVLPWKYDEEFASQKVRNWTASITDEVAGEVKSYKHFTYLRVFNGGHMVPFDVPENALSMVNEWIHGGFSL
Description: Blank in acetone d6 alone (No trizma): 1-2 mg of pentyl (2S)-2-[({2-amino-3-hydroxy-2-[2-(4-octylphenethyl]propoxy}(4-methoxyphenoxy) phosphoryl)amino]propanoate is dissolved in 150 μL of acetone d6 and the solution transferred into an NMR tube. The ^31P spectrum is recorded (16 scans are sufficient).
The sample in the NMR tube is diluted with 100 μL of Trizma buffer (pH=7.6). 0.1 mg of Carboxypeptidase Y (Aldrich) is then dissolved in 150 μL of Trizma buffer and the resulting solution is added to the NMR tube. ^31P NMR spectra are then recorded (512 scans, 600 sec delay, 20 experiments.) FIG. 1

[1] = Human serum stability (31P NMR); assay type: in vitro ADME
[2] = B95a cell lysate experiment (31P NMR); assay type: in vitro ADME; details: marmoset (cotton-top tamarin), B95a cell lysate; pH 7.6, 37 Celsius
Description: (§1) 4 mg of pentyl (2S)-2-[({2-amino-3-hydroxy-2-[2-(4-octylpheny)ethyl]propoxy}(4-methoxyphenoxy)phosphoryl)amino]propanoate are dissolved in a mixture of 150 μL of acetone d6 and 100 μL of trizma buffer (pH=7.6). The solution is transferred into an NMR tube. The ^31P spectrum is recorded (64 scans).
(§2) To the blank sample in the NMR tube 150 μL of B95a cell lysate (6.000.000 cell/m L) are added and then ^31P spectra are recorded at 37 Celsius (512 scans, 600 sec delay, 20 experiments).

B95a cell lysate = B95a cell lysate experiment (31P NMR); assay type: in vitro ADME; details: pH 7.6, 37 Celsius, FIG. 4
Description: as §1, §2

NPC1 and −2 = details: mice, clinically relevant doses, cited from earlier work
[3] = system: human NPC1 mutant fibroblasts; details: cited from earlier work

Compound | activation of the prodrug by the esterase (Carboxypeptidase Y; acetone d6 / Trizma buffer, Carboxypeptidase Y, FIG. 1) | half-life (Carboxypeptidase Y; yeast (Saccharomyces cerevisiae), Carboxypeptidase Y in Trizma buffer / acetone d6, acetone d6 / Trizma buffer pH 7.6, read-out: half-life in the presence of Carboxypeptidase Y) | stability in human serum ([1]; DMSO d6 / Trizma buffer pH 7.6) | time over which the prodrug is stable in human serum ([1]; FIG. 3) | half-life at 10 mg/mL [2] | processing in B95a cell lysate (B95a cell lysate) | cholesterol (NPC1 and −2; SphK2-dependent) | expression of NPC1 and −2 (NPC1 and −2; brain and liver) | accumulation of cholesterol and glycosphingolipids [3] | expression of NPC1 and −2 [3]
CCCCCCCCc1ccc(CCC(N)(CO)COP(=O)(N[C@@H](C)C(=O)OCCCCC)Oc2ccc(OC)cc2)cc1 (stereo partly drawn) [pentyl (2S)-2-[({2-amino-3-hydroxy-2-[2-(4-octylphenyl)ethyl]propoxy}(4-methoxyphenoxy)phosphoryl)amino]propanoate] | rapidly activated by the esterase | 35.1 h | stable in human serum | at least 665 minutes | 11.1 h | processed to release the active monophosphorylated analogue |  |  |  | 
CCCCCCCCc1ccc(CCC(N)(CO)CO)cc1 [FTY720, Fingolimod] |  |  |  |  |  |  | decreased cholesterol | increased expression of NPC1 and −2 in brain and liver | significantly reduced the accumulation of cholesterol and glycosphingolipids | greatly increased expression of NPC1 and −2
